# Patent publication US11311522B1 (Cavion, Inc., priority 2018, dated 2022)
# pIC50: −log10 of the molar value.
# What was measured:
# Cav3.2 = target: T1, Cav3.2 (Homo sapiens, UniProt O95180); experiment: Cav3.2 electrophysiology; format: cell-based; conditions: Vh=−80 mV
# T1 construct: expressed in transfected cells
# hERG = target: T2, hERG (Homo sapiens, UniProt Q12809); experiment: hERG PatchXpress assay; format: cell-based; conditions: doses up to 30 μM
# T2 construct: expressed in transfected cells; host or cells: CHO-K1
# CYP3A4 and CYP2C9 = experiment: In vitro metabolism (liver microsomes, hepatocytes, recombinant CYPs, anti-CYP antibodies); format: in vitro ADME, human; conditions: 10 μM CX-8998
# Text: Glucuronide conjugates of the oxygenated metabolites are detected in human, monkey, and dog hepatocyte preparations. […] However, the abundance of CYP3A5, CYP2C19, and CYP2D6 in human liver microsomes is low (2%-5%) relative to the primary contributors, CYP3A4 (˜30%) and CYP2C9 (˜20%). […] Information on reproductive and developmental toxicology was obtained in a 28-day pivotal female fertility study in rats and in preliminary embryo-fetal development studies in rats and rabbits.
# [1] = tested on: patients with essential tremor; experiment: T-CALM: TETRAS performance subscale (TETRAS-PS); conditions: for >5 to 10 point worsening / >10 point worsening: TETRAS-PS
# [2] = 7-day dose-range-finding toxicology in female rats
# [3] = target: human peroxisome proliferator-activated receptor gamma (PPARγ) (Homo sapiens, UniProt P37231); experiment: PPARγ binding
# [4] = Day 28, independent video raters
# [5] = Independent Video Raters, subgroup Baseline TETRAS-PS Severity <=Median, N=22
# [6] = Independent Video Raters, subgroup Baseline TETRAS-PS Severity > Median, N=16
# [7] = Independent Video Raters, subgroup No Beta-blocker Use at Day 1, N=20
# [8] = Independent Video Raters, subgroup No Concurrent Tremor Medication at Day 1, N=14
# [9] = Independent Video Raters, subgroup Using Beta-blocker at Day 1, N=18
# [10] = Independent Video Raters, subgroup Using Concurrent Tremor Medication at Day 1, N=24
# [11] = Investigator Rated, subgroup Baseline TETRAS-PS Severity <=Median, N=22
# [12] = Investigator Rated, subgroup Baseline TETRAS-PS Severity > Median, N=15
# [13] = Investigator Rated, subgroup No Beta-blocker Use at Day 1, N=19
# [14] = Investigator Rated, subgroup No Concurrent Tremor Medication at Day 1, N=14
# [15] = Investigator Rated, subgroup Using Beta-blocker at Day 1, N=18
# [16] = Investigator Rated, subgroup Using Concurrent Tremor Medication at Day 1, N=23
# T2 sequence (Q12809 whole entry): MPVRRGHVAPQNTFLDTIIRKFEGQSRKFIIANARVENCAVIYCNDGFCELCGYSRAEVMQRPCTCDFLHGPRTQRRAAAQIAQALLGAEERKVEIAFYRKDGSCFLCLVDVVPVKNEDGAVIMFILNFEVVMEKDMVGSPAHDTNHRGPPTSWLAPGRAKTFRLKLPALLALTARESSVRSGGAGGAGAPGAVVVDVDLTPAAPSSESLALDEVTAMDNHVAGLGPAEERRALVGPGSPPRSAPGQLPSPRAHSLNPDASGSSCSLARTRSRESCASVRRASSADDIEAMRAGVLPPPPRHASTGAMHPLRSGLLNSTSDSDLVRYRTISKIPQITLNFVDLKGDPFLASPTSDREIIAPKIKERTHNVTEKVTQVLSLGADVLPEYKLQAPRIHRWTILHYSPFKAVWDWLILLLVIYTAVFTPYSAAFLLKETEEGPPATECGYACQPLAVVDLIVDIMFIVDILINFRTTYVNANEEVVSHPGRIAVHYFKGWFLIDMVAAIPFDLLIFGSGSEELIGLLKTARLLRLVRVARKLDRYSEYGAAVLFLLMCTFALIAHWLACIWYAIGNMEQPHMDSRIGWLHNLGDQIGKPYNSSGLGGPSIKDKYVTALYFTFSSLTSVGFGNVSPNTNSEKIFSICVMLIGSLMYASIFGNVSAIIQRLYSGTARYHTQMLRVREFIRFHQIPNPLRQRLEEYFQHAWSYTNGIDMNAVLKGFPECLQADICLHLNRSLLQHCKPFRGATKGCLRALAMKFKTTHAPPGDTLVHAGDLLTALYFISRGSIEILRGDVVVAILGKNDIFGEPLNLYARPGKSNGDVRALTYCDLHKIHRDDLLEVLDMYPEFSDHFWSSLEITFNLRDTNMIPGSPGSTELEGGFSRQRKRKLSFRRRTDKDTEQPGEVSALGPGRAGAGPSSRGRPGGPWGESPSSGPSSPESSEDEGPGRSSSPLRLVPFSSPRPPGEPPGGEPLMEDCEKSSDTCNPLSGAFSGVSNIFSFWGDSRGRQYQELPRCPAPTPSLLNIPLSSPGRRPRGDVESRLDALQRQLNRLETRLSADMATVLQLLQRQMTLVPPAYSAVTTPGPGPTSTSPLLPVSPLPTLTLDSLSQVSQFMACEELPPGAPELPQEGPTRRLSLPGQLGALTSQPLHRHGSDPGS
# T1 sequence (O95180 whole entry): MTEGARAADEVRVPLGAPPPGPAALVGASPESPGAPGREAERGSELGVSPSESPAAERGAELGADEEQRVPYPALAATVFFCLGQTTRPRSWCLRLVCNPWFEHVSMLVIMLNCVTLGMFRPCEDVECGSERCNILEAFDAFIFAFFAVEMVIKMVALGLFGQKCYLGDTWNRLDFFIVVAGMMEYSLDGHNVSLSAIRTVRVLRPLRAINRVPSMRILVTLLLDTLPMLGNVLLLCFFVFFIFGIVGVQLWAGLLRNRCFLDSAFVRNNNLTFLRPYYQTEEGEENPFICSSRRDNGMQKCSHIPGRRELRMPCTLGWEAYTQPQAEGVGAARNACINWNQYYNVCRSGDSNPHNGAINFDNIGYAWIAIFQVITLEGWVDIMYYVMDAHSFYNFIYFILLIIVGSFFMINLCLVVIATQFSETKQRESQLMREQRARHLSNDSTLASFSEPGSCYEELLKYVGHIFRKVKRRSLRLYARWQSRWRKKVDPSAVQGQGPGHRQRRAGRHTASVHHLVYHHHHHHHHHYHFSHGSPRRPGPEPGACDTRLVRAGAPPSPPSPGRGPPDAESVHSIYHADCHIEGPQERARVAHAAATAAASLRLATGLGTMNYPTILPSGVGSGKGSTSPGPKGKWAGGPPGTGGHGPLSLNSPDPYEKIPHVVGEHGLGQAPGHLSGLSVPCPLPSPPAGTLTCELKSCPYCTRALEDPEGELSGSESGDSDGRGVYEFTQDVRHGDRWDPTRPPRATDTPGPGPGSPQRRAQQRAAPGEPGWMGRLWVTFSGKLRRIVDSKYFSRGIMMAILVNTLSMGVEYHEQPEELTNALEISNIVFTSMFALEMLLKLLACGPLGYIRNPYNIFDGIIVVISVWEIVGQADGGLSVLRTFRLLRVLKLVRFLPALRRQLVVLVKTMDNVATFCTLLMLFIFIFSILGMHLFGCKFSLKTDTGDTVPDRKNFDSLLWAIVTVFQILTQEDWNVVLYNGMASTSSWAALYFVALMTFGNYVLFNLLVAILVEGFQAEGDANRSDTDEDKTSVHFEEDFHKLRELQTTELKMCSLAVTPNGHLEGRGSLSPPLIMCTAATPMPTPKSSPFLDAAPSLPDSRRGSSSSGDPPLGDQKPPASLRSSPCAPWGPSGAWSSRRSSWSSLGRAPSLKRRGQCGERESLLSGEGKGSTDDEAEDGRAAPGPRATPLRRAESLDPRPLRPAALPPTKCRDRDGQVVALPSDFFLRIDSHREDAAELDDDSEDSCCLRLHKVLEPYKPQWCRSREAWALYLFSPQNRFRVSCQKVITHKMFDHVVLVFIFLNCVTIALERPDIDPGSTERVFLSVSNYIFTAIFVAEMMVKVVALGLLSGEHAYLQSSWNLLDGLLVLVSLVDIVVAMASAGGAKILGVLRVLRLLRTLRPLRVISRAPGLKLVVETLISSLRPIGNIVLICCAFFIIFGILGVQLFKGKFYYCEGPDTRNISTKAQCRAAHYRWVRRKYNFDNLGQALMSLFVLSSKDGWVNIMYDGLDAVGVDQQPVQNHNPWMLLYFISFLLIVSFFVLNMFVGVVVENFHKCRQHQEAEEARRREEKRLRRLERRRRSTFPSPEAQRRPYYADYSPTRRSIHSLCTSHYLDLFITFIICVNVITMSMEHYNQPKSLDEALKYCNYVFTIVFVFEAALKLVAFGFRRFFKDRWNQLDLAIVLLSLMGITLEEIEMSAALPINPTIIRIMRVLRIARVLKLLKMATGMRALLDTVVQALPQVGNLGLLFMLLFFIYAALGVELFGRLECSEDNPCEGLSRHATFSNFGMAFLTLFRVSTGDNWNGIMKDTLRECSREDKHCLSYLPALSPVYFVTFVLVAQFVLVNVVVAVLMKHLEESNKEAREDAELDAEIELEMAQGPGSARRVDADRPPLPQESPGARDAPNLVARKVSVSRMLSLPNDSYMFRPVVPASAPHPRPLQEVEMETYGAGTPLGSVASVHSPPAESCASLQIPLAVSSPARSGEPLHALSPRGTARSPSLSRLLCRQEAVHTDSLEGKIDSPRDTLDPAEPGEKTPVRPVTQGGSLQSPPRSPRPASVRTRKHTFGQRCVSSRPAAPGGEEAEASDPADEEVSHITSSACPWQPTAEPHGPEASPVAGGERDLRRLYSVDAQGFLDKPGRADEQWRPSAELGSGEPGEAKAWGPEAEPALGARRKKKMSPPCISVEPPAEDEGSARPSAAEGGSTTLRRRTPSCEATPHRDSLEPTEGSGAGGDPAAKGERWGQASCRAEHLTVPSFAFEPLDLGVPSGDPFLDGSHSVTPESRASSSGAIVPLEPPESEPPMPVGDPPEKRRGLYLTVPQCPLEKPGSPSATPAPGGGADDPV
# human peroxisome proliferator-activated receptor gamma (PPARγ), sequence (P37231 whole entry): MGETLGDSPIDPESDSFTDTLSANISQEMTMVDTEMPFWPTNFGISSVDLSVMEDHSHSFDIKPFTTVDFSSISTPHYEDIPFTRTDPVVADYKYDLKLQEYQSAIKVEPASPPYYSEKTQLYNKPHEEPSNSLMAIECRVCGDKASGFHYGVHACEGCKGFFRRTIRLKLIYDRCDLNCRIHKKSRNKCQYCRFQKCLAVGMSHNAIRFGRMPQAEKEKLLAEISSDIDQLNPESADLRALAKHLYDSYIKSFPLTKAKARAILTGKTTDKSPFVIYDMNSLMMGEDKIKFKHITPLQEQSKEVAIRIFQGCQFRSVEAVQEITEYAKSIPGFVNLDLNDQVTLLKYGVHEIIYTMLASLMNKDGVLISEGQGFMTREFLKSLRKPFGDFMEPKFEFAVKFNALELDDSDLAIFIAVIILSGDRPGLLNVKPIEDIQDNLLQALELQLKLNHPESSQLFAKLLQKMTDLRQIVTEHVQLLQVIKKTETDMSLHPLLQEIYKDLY
smiles,measurement,setting,value
CC(C)c1ccc(CC(=O)N[C@H](C)c2ccc(OCC(F)(F)F)cn2)cc1 [CX-8998],pIC50,Cav3.2,7.02
same,pIC50,hERG,4.55
same,IC20,"hERG; human, CHO-K1 cells expressing hERG",8.7 µM
same,Inhibition of metabolism by antihuman CYP3A and CYP2C antibodies,CYP3A4 and CYP2C9,> 90%
same,"Change from baseline in TETRAS-PS rated by physician, LS mean",[1]; Day 15 (8 mg BID),−3.1
same,"Change from baseline in TETRAS-PS rated by physician, LS mean",[1]; Day 28 (10 mg BID),−4.6
same,TETRAS-PS LS mean difference from placebo (95% CI),[1]; [4],"0.5 (−1.5, 2.5)"
same,"TETRAS-PS total score, Mean (SD)",[1]; [4],21.1 (6.71)
same,"TETRAS-PS total score, Median",[1]; [4],20.0
same,TETRAS-PS LS mean difference from placebo (95% CI),"[1]; Day 28, investigator rated","−2.0 (−4.0, 0.0)"
same,"TETRAS-PS total score, Median","[1]; Day 28, investigator rated",22.5
same,"TETRAS-PS Total Score change from baseline to Day 28, LS mean difference from placebo (95% CI)","[1]; Independent Video Raters, subgroup Baseline TETRAS-PS Severity <=Median","1.2 (−1.1, 3.4)"
same,"TETRAS-PS Total Score change from baseline to Day 28, LS mean (SE)",[1]; [5],−0.6 (0.82)
same,"TETRAS-PS Total Score change from baseline to Day 28, Median (minimum, maximum)",[1]; [5],"0 (−9.5, 7.0)"
same,"TETRAS-PS Total Score change from baseline to Day 28, Mean (SD)","[1]; Independent Video Raters, subgroup Baseline TETRAS-PS Severity <=Median, N=22, titrated up to 10 mg BID",−0.1 (3.98)
same,"TETRAS-PS Total Score change from baseline to Day 28, LS mean difference from placebo (95% CI)","[1]; Independent Video Raters, subgroup Baseline TETRAS-PS Severity > Median","−1.3 (−4.8, 2.3)"
same,"TETRAS-PS Total Score change from baseline to Day 28, LS mean (SE)",[1]; [6],−3.5 (1.47)
same,"TETRAS-PS Total Score change from baseline to Day 28, Mean (SD)",[1]; [6],−3.6 (4.14)
same,"TETRAS-PS Total Score change from baseline to Day 28, Median (minimum, maximum)",[1]; [6],"−3.0 (−11, 2.5)"
same,"TETRAS-PS Total Score change from baseline to Day 28, LS mean difference from placebo (95% CI)","[1]; Independent Video Raters, subgroup No Beta-blocker Use at Day 1","−1.2 (−4.3, 1.8)"
same,"TETRAS-PS Total Score change from baseline to Day 28, LS mean (SE)",[1]; [7],−1.3 (1.10)
same,"TETRAS-PS Total Score change from baseline to Day 28, Mean (SD)",[1]; [7],−1.6 (4.99)
same,"TETRAS-PS Total Score change from baseline to Day 28, Median (minimum, maximum)",[1]; [7],"−2.0 (−11, 7.0)"
same,"TETRAS-PS Total Score change from baseline to Day 28, LS mean difference from placebo (95% CI)","[1]; Independent Video Raters, subgroup No Concurrent Tremor Medication at Day 1","−2.0 (−5.8, 1.8)"
same,"TETRAS-PS Total Score change from baseline to Day 28, LS mean (SE)",[1]; [8],−4.3 (2.05)
same,"TETRAS-PS Total Score change from baseline to Day 28, Median (minimum, maximum)",[1]; [8],"−3.3 (−11, 7.0)"
same,"TETRAS-PS Total Score change from baseline to Day 28, LS mean difference from placebo (95% CI)","[1]; Independent Video Raters, subgroup Using Beta-blocker at Day 1","1.4 (−1.4, 4.3)"
same,"TETRAS-PS Total Score change from baseline to Day 28, LS mean (SE)",[1]; [9],−2.5 (1.36)
same,"TETRAS-PS Total Score change from baseline to Day 28, Mean (SD)",[1]; [9],−1.5 (3.68)
same,"TETRAS-PS Total Score change from baseline to Day 28, Median (minimum, maximum)",[1]; [9],"−1.3 (−9.5, 4.0)"
same,"TETRAS-PS Total Score change from baseline to Day 28, LS mean difference from placebo (95% CI)","[1]; Independent Video Raters, subgroup Using Concurrent Tremor Medication at Day 1","1.8 (−0.7, 4.3)"
same,"TETRAS-PS Total Score change from baseline to Day 28, LS mean (SE)",[1]; [10],−1.6 (1.14)
same,"TETRAS-PS Total Score change from baseline to Day 28, Mean (SD)",[1]; [10],−1.1 (3.71)
same,"TETRAS-PS Total Score change from baseline to Day 28, Median (minimum, maximum)",[1]; [10],"−1.3 (−9.5, 5.5)"
same,"TETRAS-PS Total Score change from baseline to Day 28, LS mean difference from placebo (95% CI)","[1]; Investigator Rated, subgroup Baseline TETRAS-PS Severity <=Median","−1.2 (−3.1, 0.6)"
same,"TETRAS-PS Total Score change from baseline to Day 28, LS mean (SE)",[1]; [11],−3.8 (0.67)
same,"TETRAS-PS Total Score change from baseline to Day 28, Mean (SD)",[1]; [11],−3.4 (3.74)
same,"TETRAS-PS Total Score change from baseline to Day 28, Median (minimum, maximum)",[1]; [11],"−3.0 (−13.5, 1.0)"
same,"TETRAS-PS Total Score change from baseline to Day 28, LS mean difference from placebo (95% CI)","[1]; Investigator Rated, subgroup Baseline TETRAS-PS Severity > Median","−3.5 (−7.4, 0.4)"
same,"TETRAS-PS Total Score change from baseline to Day 28, LS mean (SE)",[1]; [12],−5.6 (1.60)
same,"TETRAS-PS Total Score change from baseline to Day 28, Mean (SD)",[1]; [12],−5.8 (4.48)
same,"TETRAS-PS Total Score change from baseline to Day 28, Median (minimum, maximum)",[1]; [12],"−6.0 (−13, 4.5)"
same,"TETRAS-PS Total Score change from baseline to Day 28, LS mean difference from placebo (95% CI)","[1]; Investigator Rated, subgroup No Beta-blocker Use at Day 1","−4.3 (−7.0, −1.7)"
same,"TETRAS-PS Total Score change from baseline to Day 28, LS mean (SE)",[1]; [13],−5.6 (0.97)
same,"TETRAS-PS Total Score change from baseline to Day 28, Mean (SD)",[1]; [13],−4.5 (3.89)
same,"TETRAS-PS Total Score change from baseline to Day 28, Median (minimum, maximum)",[1]; [13],"−4.0 (−12.4, 1.0)"
same,"TETRAS-PS Total Score change from baseline to Day 28, LS mean difference from placebo (95% CI)","[1]; Investigator Rated, subgroup No Concurrent Tremor Medication at Day 1","−4.4 (−7.4, −1.3)"
same,"TETRAS-PS Total Score change from baseline to Day 28, LS mean (SE)",[1]; [14],−6.2 (1.60)
same,"TETRAS-PS Total Score change from baseline to Day 28, Mean (SD)",[1]; [14],−5.0 (3.97)
same,"TETRAS-PS Total Score change from baseline to Day 28, Median (minimum, maximum)",[1]; [14],"−4.5 (−12.5, 1.0)"
same,"TETRAS-PS Total Score change from baseline to Day 28, LS mean difference from placebo (95% CI)","[1]; Investigator Rated, subgroup Using Beta-blocker at Day 1","−0.3 (−3.6, 3.0)"
same,"TETRAS-PS Total Score change from baseline to Day 28, LS mean (SE)",[1]; [15],−3.6 (1.56)
same,"TETRAS-PS Total Score change from baseline to Day 28, Mean (SD)",[1]; [15],−4.2 (4.55)
same,"TETRAS-PS Total Score change from baseline to Day 28, Median (minimum, maximum)",[1]; [15],"−4.0 (−13.5, 4.5)"
same,"TETRAS-PS Total Score change from baseline to Day 28, LS mean difference from placebo (95% CI)","[1]; Investigator Rated, subgroup Using Concurrent Tremor Medication at Day 1","−0.5 (−3.2, 2.3)"
same,"TETRAS-PS Total Score change from baseline to Day 28, LS mean (SE)",[1]; [16],−3.5 (1.29)
same,"TETRAS-PS Total Score change from baseline to Day 28, Mean (SD)",[1]; [16],−3.9 (4.31)
same,"TETRAS-PS Total Score change from baseline to Day 28, Median (minimum, maximum)",[1]; [16],"−3.5 (−13.5, 4.5)"
same,>5 to 10 point worsening,[1]; Day 15,0 n (%)
same,>10 point worsening,[1]; Day 15,0 n (%)
same,>5 to 10 point worsening,[1]; Day 28,0 n (%)
same,>10 point worsening,[1]; Day 28,0 n (%)
same,"TETRAS-PS change from baseline to Day 28, Mean (SD)",[1]; independent video raters,−1.6 (4.36)
same,"TETRAS-PS change from baseline to Day 28, Median",[1]; independent video raters,−1.5
same,"TETRAS-PS change from baseline to Day 28, Mean (SD)",[1]; investigator rated,−4.4 (4.16)
same,"TETRAS-PS change from baseline to Day 28, Median",[1]; investigator rated,−4.0
same,NOEL,"[2]; Sprague-Dawley rat, 7-day exploratory toxicity, oral gavage",500 mg/kg/day
same,findings indicative of dose-limiting toxicity,"[2]; Sprague-Dawley rat, 10, 100, or 500 mg/kg/day oral gavage for 7 days",No findings
C=C(C)c1ccc(CC(=O)N[C@H](C)c2ccc(OCC(F)(F)F)cn2)cc1 [M01],inhibition at 10 µM,[3],54%
